Entries after “also recorded” stand apart in the source; their conditions may differ.
Legend:
HCV gt1b replicon = assay: HCV replicon assay, gt1b; assay type: cell-based, hepatitis C virus; details: for potency against gt1b compared with daclatasvir (1), in words: vs 1
HCV gt1a replicon = assay: HCV replicon assay, gt1a; assay type: cell-based, hepatitis C virus

COC(=O)N[C@H]1CCC[C@H]2CC[C@@H](c3ncc(-c4ccc(-c5ccc(-c6cnc([C@@H]7CCCN7C(=O)[C@@H](NC(=O)OC)C(C)C)[nH]6)cc5)cc4)[nH]3)N2C1=O [Compound 2]
potency against gt1b compared with daclatasvir (1), in words (HCV gt1b replicon): decreased slightly | potency decrease against gt1a compared with daclatasvir (1) (HCV gt1a replicon; vs 1): ~221 fold

COC(=O)N[C@H]1CCC[C@@H]2CC[C@@H](c3ncc(-c4ccc(-c5ccc(-c6cnc([C@@H]7CCCN7C(=O)[C@@H](NC(=O)OC)C(C)C)[nH]6)cc5)cc4)[nH]3)N2C1=O [Compound 5]
potency against gt1b compared with daclatasvir (1), in words (HCV gt1b replicon): nearly equipotent; also recorded: essentially equipotent | times less potent against gt1a than 1 (HCV gt1a replicon; vs daclatasvir (1)): ~6

COC(=O)N[C@H](C(=O)N1CCC[C@H]1c1ncc(-c2ccc(-c3ccc(-c4cnc([C@@H]5CC[C@H]6CCC[C@@H](NC(=O)OC)C(=O)N65)[nH]4)cc3)cc2)[nH]1)C(C)C [Compound 4]
gt1b potency regained compared with 2 (HCV gt1b replicon; vs 2): ~2 fold | gt1a potency regained compared with 2 (HCV gt1a replicon; vs 2): ~27 fold

COC(=O)N[C@H](C(=O)N1CC2(C[C@H]1c1ncc(-c3ccc(-c4ccc(-c5cnc([C@@H]6CC[C@H]7CCC[C@H](N(C)C)C(=O)N76)[nH]5)cc4)cc3)[nH]1)OCCO2)C(C)C [Compound 13]
less potent than 5 against gt1a (HCV gt1a replicon; vs 5): 16 fold
